In ChEMBL document CHEMBL4373736, “Synthesis and biological evaluation of panaxatriol derivatives against myocardial ischemia/reperfusion injury in the rat” (Eur J Med Chem, 2020):

What was measured:
Cardiac muscle cell [1] = test: Cytoprotective activity against OGD/reperfusion induced injury in Sprague-Dawley rat cardiomyocytes assessed as effect on cell viability at 10 uM pretreated for 24 hrs followed by OGD for 2 hrs and subsequent reperfusion for 24 hrs (reference value: 43.9 to 45.4 +/- 1.1 %); format: functional
Cardiac muscle cell [2] = test: Cytoprotective activity against OGD/reperfusion induced injury in Sprague-Dawley rat cardiomyocytes assessed as effect on cell viability at 0.1 uM pretreated for 24 hrs followed by OGD for 2 hrs and subsequent reperfusion for 24 hrs (reference value: 43.9 to 45.4 +/- 1.1 %); format: functional
Cardiac muscle cell [3] = test: Cytotoxicity against Sprague-Dawley rat cardiomyocytes assessed as inhibition of cell growth at 10 uM treated for 50 hrs by MTT assay; format: cell-based
Cardiac muscle cell [4] = test: Cytoprotective activity against OGD/reperfusion induced injury in Sprague-Dawley rat cardiomyocytes assessed as effect on cell viability at 1 uM pretreated for 24 hrs followed by OGD for 2 hrs and subsequent reperfusion for 24 hrs (reference value: 43.9 to 45.4 +/- 1.1 %); format: functional

Row | Compound | Activity (Cardiac muscle cell [1]) | Activity (Cardiac muscle cell [2]) | Activity (Cardiac muscle cell [3]) | Activity (Cardiac muscle cell [4])
1 | CCOC(=O)c1nn(-c2ccccc2)c2c1C[C@]1(C)[C@H]3C[C@@H](O)[C@@H]4[C@@H]([C@@]5(C)CCCC(C)(C)O5)CC[C@@]4(C)[C@]3(C)C[C@@H](O)[C@H]1C2(C)C | 63.6% | 51.4% | Non-Toxic | 56.8%
2 | CC(=O)Nc1nc2c(s1)C[C@]1(C)[C@H]3C[C@@H](O)[C@@H]4[C@@H]([C@@]5(C)CCCC(C)(C)O5)CC[C@@]4(C)[C@]3(C)CC(=O)[C@H]1C2(C)C | 61.2% | 48.6% | Non-Toxic | 53.6%
3 | CC1(C)CCC[C@](C)([C@H]2CC[C@]3(C)[C@@H]2[C@H](O)C[C@@H]2[C@@]4(C)Cc5c(C(=O)O)nn(-c6ccccc6)c5C(C)(C)[C@@H]4[C@H](O)C[C@]23C)O1 | 63.1% | 51.2% | Non-Toxic | 56.2%
4 | CC1(C)CCC[C@](C)([C@H]2CC[C@]3(C)[C@@H]2[C@H](O)C[C@@H]2[C@@]4(C)Cc5sc(Nc6ccccc6)nc5C(C)(C)[C@@H]4C(=O)C[C@]23C)O1 | 63% | 49.7% | Non-Toxic | 56%
5 | CC1(C)CCC[C@](C)([C@H]2CC[C@]3(C)[C@@H]2[C@H](O)C[C@@H]2[C@@]4(C)Cc5c(CO)nn(-c6ccccc6)c5C(C)(C)[C@@H]4[C@H](O)C[C@]23C)O1 | 61.2% | 51.6% | Non-Toxic | 56.6%
6 | CCOC(=O)c1noc2c1C[C@]1(C)[C@H]3C[C@@H](O)[C@@H]4[C@@H]([C@@]5(C)CCCC(C)(C)O5)CC[C@@]4(C)[C@]3(C)C[C@@H](O)[C@H]1C2(C)C | 74.7% | 57.5% | Non-Toxic | 67.9%
7 | C=CCNc1nc2c(s1)C[C@]1(C)[C@H]3C[C@@H](O)[C@@H]4[C@@H]([C@@]5(C)CCCC(C)(C)O5)CC[C@@]4(C)[C@]3(C)CC(=O)[C@H]1C2(C)C | 77.4% | 61.6% | Non-Toxic | 70%
8 | CC1(C)CCC[C@](C)([C@H]2CC[C@]3(C)[C@@H]2[C@H](O)C[C@@H]2[C@@]4(C)Cc5c([nH]c6ccccc56)C(C)(C)[C@@H]4C(=O)C[C@]23C)O1 | 71.1% | 56.9% | Non-Toxic | 64.3%
9 | Cc1nc2c(s1)C[C@]1(C)[C@H]3C[C@@H](O)[C@@H]4[C@@H]([C@@]5(C)CCCC(C)(C)O5)CC[C@@]4(C)[C@]3(C)CC(=O)[C@H]1C2(C)C | 58.5% | 48.7% | Non-Toxic | 52.1%
10 | CC1(C)CCC[C@](C)([C@H]2CC[C@]3(C)[C@@H]2[C@H](O)C[C@@H]2[C@@]4(C)Cc5c(n[nH]c5C(F)(F)F)C(C)(C)[C@@H]4[C@H](O)C[C@]23C)O1 | 76.4% | 60.2% | Non-Toxic | 67.6%
11 | CC1(C)CCC[C@](C)([C@H]2CC[C@]3(C)[C@@H]2[C@H](O)C[C@@H]2[C@@]4(C)Cc5sc(-c6ccccc6)nc5C(C)(C)[C@@H]4C(=O)C[C@]23C)O1 | 75.3% | 59.1% | Non-Toxic | 68%
12 | CC1(C)CCC[C@](C)([C@H]2CC[C@]3(C)[C@@H]2[C@H](O)C[C@@H]2[C@@]4(C)Cc5cnoc5C(C)(C)[C@@H]4[C@H](O)C[C@]23C)O1 | 76.9% | 60.6% | Non-Toxic | 67.2%
